# From patent US12195490B2, “STRAD-binding agents and uses thereof” (The Regents of the University of California, priority 2020, dated 2025)
# Target: T1, LKB1 (Homo sapiens, UniProt Q15831+Q7RTN6)
# T1 sequence (Q15831 1-433): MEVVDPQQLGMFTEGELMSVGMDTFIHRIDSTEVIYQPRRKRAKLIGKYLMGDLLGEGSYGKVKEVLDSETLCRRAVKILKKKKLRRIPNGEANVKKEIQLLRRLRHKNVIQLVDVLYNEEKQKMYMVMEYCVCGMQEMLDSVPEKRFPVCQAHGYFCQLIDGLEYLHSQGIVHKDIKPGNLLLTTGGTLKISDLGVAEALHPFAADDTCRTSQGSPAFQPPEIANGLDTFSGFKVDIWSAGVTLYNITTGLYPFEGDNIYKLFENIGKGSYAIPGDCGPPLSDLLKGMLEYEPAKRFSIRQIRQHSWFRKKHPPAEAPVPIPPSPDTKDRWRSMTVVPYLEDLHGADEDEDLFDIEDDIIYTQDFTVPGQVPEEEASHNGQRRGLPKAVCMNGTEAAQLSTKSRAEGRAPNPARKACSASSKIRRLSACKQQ
# T1 sequence (Q7RTN6 1-431): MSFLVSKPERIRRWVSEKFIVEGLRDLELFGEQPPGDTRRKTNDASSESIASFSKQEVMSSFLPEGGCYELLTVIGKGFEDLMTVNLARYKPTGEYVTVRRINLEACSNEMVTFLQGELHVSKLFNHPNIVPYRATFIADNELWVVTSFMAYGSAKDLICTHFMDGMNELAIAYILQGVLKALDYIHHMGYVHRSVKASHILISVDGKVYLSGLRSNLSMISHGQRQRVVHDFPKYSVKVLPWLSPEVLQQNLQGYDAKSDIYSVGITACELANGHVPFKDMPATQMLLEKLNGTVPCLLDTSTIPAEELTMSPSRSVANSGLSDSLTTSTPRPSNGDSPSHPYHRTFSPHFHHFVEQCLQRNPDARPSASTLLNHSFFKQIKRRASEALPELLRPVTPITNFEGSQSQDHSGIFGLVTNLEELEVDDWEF
# T1 sequence (Q9Y376 1-341 partner): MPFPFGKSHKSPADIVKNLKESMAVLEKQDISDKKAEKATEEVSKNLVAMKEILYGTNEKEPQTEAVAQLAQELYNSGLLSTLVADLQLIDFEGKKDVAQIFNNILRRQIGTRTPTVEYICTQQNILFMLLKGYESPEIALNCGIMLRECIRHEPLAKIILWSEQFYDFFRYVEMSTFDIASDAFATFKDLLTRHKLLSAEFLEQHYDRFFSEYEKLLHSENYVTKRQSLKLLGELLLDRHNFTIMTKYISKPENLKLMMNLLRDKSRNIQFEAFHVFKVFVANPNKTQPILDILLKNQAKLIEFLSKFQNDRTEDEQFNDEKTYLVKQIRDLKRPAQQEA
# Test: in vitro LKB1 functional activity
# Type: biochemical
# Conditions: APA analogs
row,Structure (SMILES),LKB1 % Act. Increase
1,"CCOP(=O)(NS(=O)(=O)c1ccc(NC(=O)c2nc(-c3ccc(C)cc3)cnc2N)cc1)OCC [SU20668-0475, diethyl 4-(3-amino-6-p-tolylpyrazine-2-carboxamido)phenylsulfonylphosphoramidate]",B (B=399-2000%)
2,"Cc1ccc(-c2cnc(N)c(C(=O)Nc3ccc(S(=O)(=O)NC4(C)COC4)cc3)n2)cc1 [SU20668-0510, 3-amino-N-(4-(N-(3-methyloxetan-3-yl)sulfamoyl)phenyl)-6-p-tolylpyrazine-2-carboxamide]",B (B=399-2000%)
3,"Cc1ccc(-c2cnc(N)c(C(=O)Nc3ccc(S(=O)(=O)CP(C)(C)=O)cc3)n2)cc1 [SU20668-0492, 3-amino-N-[4-(dimethylphosphorylmethylsulfonyl)phenyl]-6-(p-tolyl)pyrazine-2-carboxamide]",B (B=399-2000%)
4,"CCP(=O)(CC)CS(=O)(=O)c1ccc(NC(=O)c2nc(-c3ccc(C)cc3)cnc2N)cc1 [SU20668-0491, 3-amino-N-(4-((diethylphosphoryl)methylsulfonyl)phenyl)-6-p-tolylpyrazine-2-carboxamide]",B (B=399-2000%)
5,"Cc1ccc(-c2cnc(N)c(C(=O)Nc3ccc(C(=O)NS(C)(=O)=O)cc3)n2)cc1 [SU20668-0478, 3-amino-N-(4-(methylsulfonylcarbamoyl)phenyl)-6-p-tolylpyrazine-2-carboxamide]",D (D=<1000%)
6,"CC(=O)NS(=O)(=O)c1ccc(NC(=O)c2nc(-c3cccc(C(N)=O)c3)cnc2N)cc1 [SU20668-0341, N-(4-(N-acetylsulfamoyl)phenyl)-3-amino-6-(3-carbamoylphenyl)pyrazine-2-carboxamide]",D (D=<1000%)
7,"Cc1ccc(-c2cnc(N)c(C(=O)Nc3ccc(C(=O)OC(C)(C)C)c(F)c3)n2)cc1 [SU20668-0308, tert-butyl 4-(3-amino-6-p-tolylpyrazine-2-carboxamido)-2-fluorobenzoate]",C (C=199-1000%)
8,"CC(=O)NS(=O)(=O)c1ccc(NC(=O)c2nc(-c3cnc(C)nc3)cnc2N)cc1 [SU20668-0369, N-(4-(N-acetylsulfamoyl)phenyl)-3-amino-6-(2-methylpyrimidin-5-yl)pyrazine-2-carboxamide]",C (C=199-1000%)
9,"Cc1ccc(-c2cnc(N)c(C(=O)Nc3ccc(C(=O)O)nc3)n2)cc1 [SU20668-0300, 5-(3-amino-6-p-tolylpyrazine-2-carboxamido)picolinic acid]",D (D=<1000%)
10,"CC(=O)NS(=O)(=O)c1ccc(NC(=O)c2nc(-c3csc4ccccc34)cnc2N)cc1 [SU20668-0376, N-(4-(N-acetylsulfamoyl)phenyl)-3-amino-6-(benzo[b]thiophen-3-yl)pyrazine-2-carboxamide]",C (C=199-1000%)
11,"CC(=O)NS(=O)(=O)c1ccc(NC(=O)c2nc(-c3cc[nH]n3)cnc2N)cc1 [SU20668-0352, N-(4-(N-acetylsulfamoyl)phenyl)-3-amino-6-(1H-pyrazol-3-yl)pyrazine-2-carboxamide]",C (C=199-1000%)
12,CC(=O)NS(=O)(=O)c1ccc(NC(=O)c2nc(-c3ccc(C)cc3)cnc2N)cc1F [SU20668-0483],D (D=<1000%)
13,"CC(=O)NS(=O)(=O)c1ccc(NC(=O)c2nc(-c3ccc(S(N)(=O)=O)cc3)cnc2N)cc1 [SU20668-0351, N-(4-(N-acetylsulfamoyl)phenyl)-3-amino-6-(4-sulfamoylphenyl)pyrazine-2-carboxamide]",C (C=199-1000%)
14,"CC(=O)NS(=O)(=O)c1ccc(NC(=O)c2nc(-c3ccc(Cl)cc3)cnc2N)cc1 [SU20668-0391, N-(4-(N-acetylsulfamoyl)phenyl)-3-amino-6-(4-chlorophenyl)pyrazine-2-carboxamide]",D (D=<1000%)
15,"CC(=O)NS(=O)(=O)c1ccc(NC(=O)c2nc(-c3cccc(N4CCOCC4)c3)cnc2N)cc1 [SU20668-0377, N-(4-(N-acetylsulfamoyl)phenyl)-3-amino-6-(3-morpholinophenyl)pyrazine-2-carboxamide]",D (D=<1000%)
16,"CCOP(=O)(OCC)C(C)(C)S(=O)(=O)c1ccc(NC(=O)c2nc(-c3ccc(C)cc3)cnc2N)cc1 [SU20668-0486, diethyl 2-(4-(3-amino-6-p-tolylpyrazine-2-carboxamido)phenylsulfonyl)propan-2-ylphosphonate]",B (B=399-2000%)

row,Structure (SMILES),LKB1 % Act. Increase
1,"CC(=O)NS(=O)(=O)c1ccc(NC(=O)c2nc(-c3ccc(C4CCCN4)cc3)cnc2N)cc1 (stereo not shown) [SU20668-0340, N-(4-(N-acetylsulfamoyl)phenyl)-3-amino-6-(4-(pyrrolidin-2-yl)phenyl)pyrazine-2-carboxamide]",D (D=<1000%)
2,"CNS(=O)(=O)c1ccc(NC(=O)c2nc(-c3ccc(C)cc3)cnc2N)cc1 [SU20668-0286, 3-amino-N-(4-(N-methylsulfamoyl)phenyl)-6-p-tolylpyrazine-2-carboxamide]",C (C=199-1000%)
3,"CCO[P@](C)(=O)CS(=O)(=O)c1ccc(NC(=O)c2nc(-c3ccc(C)cc3)cnc2N)cc1 [SU20668-0518, (S)-ethyl (4-(3-amino-6-p-tolylpyrazine-2-carboxamido)phenylsulfonyl)methyl(methyl)phosphinate]",B (B=399-2000%)
4,"Cc1ccc(-c2cnc(N)c(C(=O)Nc3ccc(S(=O)(=O)NC(=O)CCOCc4ccccc4)cc3)n2)cc1 [SU20668-0368, 3-amino-N-(4-(N-(3-(benzyloxy)propanoyl)sulfamoyl)phenyl)-6-p-tolylpyrazine-2-carboxamide]",D (D=<1000%)
5,"CC(=O)Nc1ccc(-c2cnc(N)c(C(=O)Nc3ccc(S(=O)(=O)NC(C)=O)cc3)n2)cc1 [SU20668-0346, 6-(4-acetamidophenyl)-N-(4-(N-acetylsulfamoyl)phenyl)-3-aminopyrazine-2-carboxamide]",C (C=199-1000%)
6,Cc1ccc(-c2cnc(N)c(C(=O)Nc3ccc(NS(C)(=O)=O)cc3)n2)cc1 [SU20668-0281],D (D=<1000%)
7,"CCOP(=O)(OCC)C(C)S(=O)(=O)c1ccc(NC(=O)c2nc(-c3ccc(C)cc3)cnc2N)cc1 (stereo not shown) [SU20668-0505, diethyl 1-(4-(3-amino-6-p-tolylpyrazine-2-carboxamido)phenylsulfonyl)ethylphosphonate]",A (A=>4000%)
8,"Cc1ccc(-c2cnc(N)c(C(=O)Nc3ccc(CC(=O)O)cc3)n2)cc1 [SU20668-0330, 2-(4-(3-amino-6-p-tolylpyrazine-2-carboxamido)phenyl)acetic acid]",C (C=199-1000%)
9,"CCP(=O)(CS(=O)(=O)c1ccc(NC(=O)c2nc(-c3ccc(C)cc3)cnc2N)cc1)OC (stereo not shown) [SU20668-0514, methyl (4-(3-amino-6-p-tolylpyrazine-2-carboxamido)phenylsulfonyl)methyl(ethyl)phosphinate]",B (B=399-2000%)
10,"Cc1ccc(-c2cnc(N)c(C(=O)Nc3ccc(S(=O)(=O)NC(=O)CCc4ccccc4)cc3)n2)cc1 [SU20668-0328, 3-amino-N-(4-(N-(3-phenylpropanoyl)sulfamoyl)phenyl)-6-p-tolylpyrazine-2-carboxamide]",D (D=<1000%)
11,"CCS(=O)(=O)c1cccc(-c2cnc(N)c(C(=O)Nc3ccc(S(=O)(=O)NC(C)=O)cc3)n2)c1 [SU20668-0373, N-(4-(N-acetylsulfamoyl)phenyl)-3-amino-6-(3-(ethylsulfonyl)phenyl)pyrazine-2-carboxamide]",C (C=199-1000%)
12,"Cc1ccc(-c2cnc(N)c(C(=O)Nc3ccc(S(=O)(=O)CP(=O)(OC(C)C)OC(C)C)cc3)n2)cc1 [SU20668-0484, diisopropyl (4-(3-amino-6-p-tolylpyrazine-2-carboxamido)phenylsulfonyl)methylphosphonate]",D (D=<1000%)
13,"CC(=O)NS(=O)(=O)c1ccc(NC(=O)c2nc(-c3ccc(CO)cc3)cnc2N)cc1 [SU20668-0348, N-(4-(N-acetylsulfamoyl)phenyl)-3-amino-6-(4-(hydroxymethyl)phenyl)pyrazine-2-carboxamide]",C (C=199-1000%)
14,"Cc1ccc(-c2cnc(N)c(C(=O)Nc3ccc(C(N)=O)cc3)n2)cc1 [SU20668-0280, 3-amino-N-(4-carbamoylphenyl)-6-p-tolylpyrazine-2-carboxamide]",D (D=<1000%)
15,"Cc1ccc(-c2cnc(N)c(C(=O)Nc3ccc(CS(N)(=O)=O)cc3)n2)cc1 [SU20668-0331, 3-amino-N-(4-(sulfamoylmethyl)phenyl)-6-p-tolylpyrazine-2-carboxamide]",C (C=199-1000%)
